These are literature values, as cited in US9950967B2, “Titanium-containing formulation and method of preparation of titanium-containing formulation” (INTERMAG Sp. z.o.o., priority 2013, dated 2018).

In this series the test system is plants. As to conditions: I. Pais, J. Plant Nutr. 6:3-133, 1983.

For titanium, the increases the yield is 10-20%.
